Measured values as given in ChEMBL document CHEMBL4041474, “Design, synthesis and pharmacological evaluation of 4,5-diarylisoxazols bearing amino acid residues within the 3-amido motif as potent heat shock protein 90 (Hsp90) inhibitors” (Eur J Med Chem, 2017).
Activity calls are given as the source filed them. The calls are words filed in the database; no cut-off is given here.

How the values were obtained:
NCI-H3122 [1] = test: Antiproliferative activity against human NCI-H3122 cells after 72 hrs by SRB assay; assay type: functional, cell-based; conditions: NCI-H3122, 72 h
[2] = molecular target: Heat shock protein HSP 90-alpha (Homo sapiens, UniProt P07900); test: Inhibition of fluorescein isothiocyanate labeled geldanamycin binding to recombinant Hsp90alpha (unknown origin) after 1 hr by fluorescence polarization assay
NCI-H3122 [3] = test: Potency index, ratio of AUY922 IC50 to compound IC50 for human NCI-H3122 cells; assay type: functional
A549 = test: Antiproliferative activity against human A549 cells after 72 hrs by SRB assay; assay type: functional, cell-based; conditions: A549, 72 h
[4] = molecular target: T1, Heat shock protein HSP90 (Homo sapiens) (UniProt P07900+P08238); conditions: 100 nM
Description: Inhibition of Hsp90 in human NCI-H3122 cells assessed as degradation of EML4-ALK fusion protein at 100 nM after 24 hrs by Western blot analysis

U-87 MG = test: Antiproliferative activity against human U87MG cells after 72 hrs by SRB assay; assay type: functional, cell-based, U-87MG ATCC
NCI-N87 = test: Antiproliferative activity against human NCI-N87 cells after 72 hrs by SRB assay; assay type: functional, cell-based; conditions: NCI-N87, 72 h
[5] = molecular target: T1, Heat shock protein HSP90 (Homo sapiens); conditions: 11.1 to 100 nM
Description: Inhibition of Hsp90 in human NCI-H3122 cells assessed as upregulation of Hsp70 at 11.1 to 100 nM after 24 hrs by Western blot analysis

NCI-H460 = test: Antiproliferative activity against human NCI-H460 cells after 72 hrs by SRB assay; assay type: functional, cell-based; conditions: NCI-H460, 72 h
[6] = molecular target: T1, Heat shock protein HSP90 (Homo sapiens); conditions: 11.1 to 100 nM; remark: listed apart in the source
Description: Inhibition of Hsp90 in human NCI-H3122 cells assessed as decrease in phosphorylation of ERK1/2 at 11.1 to 100 nM after 24 hrs by Western blot analysis

[7] = molecular target: T1, Heat shock protein HSP90 (Homo sapiens); conditions: 11.1 to 100 nM; remark: listed apart in the source
Description: Inhibition of Hsp90 in human NCI-H3122 cells assessed as decrease in phosphorylation of AKT at Ser473 at 11.1 to 100 nM after 24 hrs by Western blot analysis

MDA-MB-231 = test: Antiproliferative activity against human MDA-MB-231 cells after 72 hrs by SRB assay; assay type: functional, cell-based; conditions: MDA-MB-231, 72 h
DU-145 = test: Antiproliferative activity against human DU145 cells after 72 hrs by SRB assay; assay type: functional, cell-based; conditions: DU-145, 72 h
BT-474 = test: Antiproliferative activity against human BT474 cells after 72 hrs by SRB assay; assay type: functional, cell-based; conditions: BT-474, 72 h
HCT-116 = test: Antiproliferative activity against human HCT116 cells after 72 hrs by SRB assay; assay type: functional, cell-based; conditions: HCT-116, 72 h

Row | Compound | IC50 (NCI-H3122 [1]) [nM] | IC50 [2] [nM] | further results
1 | CC(C)c1cc(-c2onc(C(=O)N[C@@H](C(=O)OC(C)(C)C)C(C)C)c2-c2ccc(CN3CCOCC3)cc2)c(O)cc1O | < 1 | 112 | 
2 | CNC(=O)[C@H](NC(=O)c1noc(-c2cc(C(C)C)c(O)cc2O)c1-c1ccc(CN2CCOCC2)cc1)C(C)C | 39 | 21 | 
3 | CCNC(=O)c1noc(-c2cc(C(C)C)c(O)cc2O)c1-c1ccc(CN2CCOCC2)cc1 [LUMINESPIB] | 14 |  | 
4 | CC(C)c1cc(-c2onc(C(=O)N[C@@H](C(=O)NC3(CO)CC3)C(C)C)c2-c2ccc(CN3CCOCC3)cc2)c(O)cc1O | 81 | 106 | 
5 | COC(=O)[C@H](NC(=O)c1noc(-c2cc(C(C)C)c(O)cc2O)c1-c1ccc(CN2CCOCC2)cc1)C(C)C | 28 | 79 | 
6 | CCOC(=O)[C@H](NC(=O)c1noc(-c2cc(C(C)C)c(O)cc2O)c1-c1ccc(CN2CCOCC2)cc1)C(C)C | 2 | 189 | Ratio IC50 (NCI-H3122 [3]): 10
7 | CC(C)c1cc(-c2onc(C(=O)N[C@@H](C(=O)N3CCN(C)CC3)C(C)C)c2-c2ccc(CN3CCOCC3)cc2)c(O)cc1O | 149 | 429 | 
8 | COC(=O)[C@H](CCCCNC(=O)OCc1ccccc1)NC(=O)c1noc(-c2cc(C(C)C)c(O)cc2O)c1-c1ccc(CN2CCOCC2)cc1 | 4470 | 514 | 
9 | COC(=O)[C@@H](CC(C)C)NC(=O)c1noc(-c2cc(C(C)C)c(O)cc2O)c1-c1ccc(CN2CCOCC2)cc1 | 19 | 151 | 
10 | CC(C)c1cc(-c2onc(C(=O)N[C@@H](C(=O)NCCN3CCOCC3)C(C)C)c2-c2ccc(CN3CCOCC3)cc2)c(O)cc1O | 139 | 206 | 
11 | COC(=O)[C@@H](CC(C)C)NC(=O)[C@H](NC(=O)c1noc(-c2cc(C(C)C)c(O)cc2O)c1-c1ccc(CN2CCOCC2)cc1)C(C)C | > 10000 | 285 | 
12 | COC(=O)[C@@H](Cc1ccccc1)NC(=O)c1cnc(N2CCC(CNC(=O)c3noc(-c4cc(C(C)C)c(O)cc4O)c3-c3ccc(CN4CCOCC4)cc3)CC2)nc1 | 1130 | 749 | 
13 | COC(=O)[C@@H](Cc1ccccc1)NC(=O)COCCOCCOCCNC(=O)c1noc(-c2cc(C(C)C)c(O)cc2O)c1-c1ccc(CN2CCOCC2)cc1 | 40 | 122 | 
14 | COC(=O)[C@@H](Cc1ccccc1)NC(=O)COCCOCCNC(=O)c1noc(-c2cc(C(C)C)c(O)cc2O)c1-c1ccc(CN2CCOCC2)cc1 | 1530 | > 1000 | 
15 | CCNC(=O)[C@H](NC(=O)c1noc(-c2cc(C(C)C)c(O)cc2O)c1-c1ccc(CN2CCOCC2)cc1)C(C)C | 34 | 28 | 
16 | COC(=O)[C@@H](Cc1ccccc1)NC(=O)c1noc(-c2cc(C(C)C)c(O)cc2O)c1-c1ccc(CN2CCOCC2)cc1 | 77 | 260 | 

Row | Compound | IC50 (NCI-H3122 [1]) [nM] | IC50 [2] [nM] | further results
17 | COC(=O)[C@H](NC(=O)COCCOCCNC(=O)c1noc(-c2cc(C(C)C)c(O)cc2O)c1-c1ccc(CN2CCOCC2)cc1)C(C)C | 90 | 154 | 
18 | COC(=O)[C@H](NC(=O)c1cnc(N2CCN(C(=O)c3noc(-c4cc(C(C)C)c(O)cc4O)c3-c3ccc(CN4CCOCC4)cc3)CC2)nc1)C(C)C | 135 | 473 | 
19 | COC(=O)[C@H](NC(=O)[C@H](NC(=O)c1noc(-c2cc(C(C)C)c(O)cc2O)c1-c1ccc(CN2CCOCC2)cc1)C(C)C)C(C)C | > 10000 | 206 | 
20 | COC(=O)[C@H](NC(=O)CCCCCNC(=O)c1noc(-c2cc(C(C)C)c(O)cc2O)c1-c1ccc(CN2CCOCC2)cc1)C(C)C | 65 | 98 | 
21 | COC(=O)[C@H](NC(=O)[C@H](NC(=O)[C@H](NC(=O)[C@H](NC(=O)c1noc(-c2cc(C(C)C)c(O)cc2O)c1-c1ccc(CN2CCOCC2)cc1)C(C)C)C(C)C)C(C)C)C(C)C | 638 | 528 | 
22 | CC(C)c1cc(-c2onc(C(=O)N[C@@H](C(=O)N3CC(F)(F)C3)C(C)C)c2-c2ccc(CN3CCOCC3)cc2)c(O)cc1O | 37 | 39 | 
23 | COC(=O)[C@@H](Cc1ccccc1)NC(=O)[C@H](NC(=O)c1noc(-c2cc(C(C)C)c(O)cc2O)c1-c1ccc(CN2CCOCC2)cc1)C(C)C | 79 | 397 | 
24 | COC(=O)[C@@H](CC1CCCCC1)NC(=O)c1noc(-c2cc(C(C)C)c(O)cc2O)c1-c1ccc(CN2CCOCC2)cc1 | > 10000 | 836 | 
25 | COC(=O)[C@@H](Cc1ccccc1)NC(=O)c1cnc(N2CCN(C(=O)c3noc(-c4cc(C(C)C)c(O)cc4O)c3-c3ccc(CN4CCOCC4)cc3)CC2)nc1 | 164 | > 1000 | 
26 | COC(=O)[C@H](NC(=O)[C@H](NC(=O)C(NC(=O)c1noc(-c2cc(C(C)C)c(O)cc2O)c1-c1ccc(CN2CCOCC2)cc1)C(C)C)C(C)C)C(C)C (single isomer, unassigned) | 34 | 259 | 
27 | COC(=O)[C@@H](Cc1ccccc1)NC(=O)CCCCCNC(=O)c1noc(-c2cc(C(C)C)c(O)cc2O)c1-c1ccc(CN2CCOCC2)cc1 | 90 | 307 | 
28 | COC(=O)[C@H](NC(=O)COCCOCCOCCNC(=O)c1noc(-c2cc(C(C)C)c(O)cc2O)c1-c1ccc(CN2CCOCC2)cc1)C(C)C | 42 | 14 | IC50 (A549): 351 nM; inhibition [4]: Active; IC50 (U-87 MG): 109 nM; IC50 (NCI-N87): 564 nM; inhibition [5]: Active; IC50 (NCI-H460): 247 nM; inhibition [6]: Active; inhibition [7]: Active; IC50 (MDA-MB-231): 130 nM; IC50 (DU-145): 239 nM; IC50 (BT-474): 57 nM; IC50 (HCT-116): 116 nM
29 | COC(=O)[C@@H](CO)NC(=O)c1noc(-c2cc(C(C)C)c(O)cc2O)c1-c1ccc(CN2CCOCC2)cc1 | 227 | 72 | 
30 | COC(=O)[C@H](NC(=O)c1cnc(N2CCC(CNC(=O)c3noc(-c4cc(C(C)C)c(O)cc4O)c3-c3ccc(CN4CCOCC4)cc3)CC2)nc1)C(C)C | 278 | 407 | 
31 | COC(=O)[C@@H](Cc1c[nH]c2ccccc12)NC(=O)c1noc(-c2cc(C(C)C)c(O)cc2O)c1-c1ccc(CN2CCOCC2)cc1 | 149 | 368 | 
